Laboratory results taken from patent US20060167081A1, “Ep4 receptor agonists” (priority 2002, published 2006).

Experiments:
EP2 mRNA [1] = test: EP2 mRNA in RP-1 periosteal cells (Northern blot); assay type: cell-based, rat; settings: RP-1 cells
Description: (§1) Cell Cultures—RP-1 periosteal cells are spontaneously immortalized from primary cultures of periosteal cells from tibae of 4-week old Sprague-Dawley rats and are cultured in DMEM (BRL, Gaithersburg, Md.) with 10% fetal bovine serum (JRP Biosciences, Lenexa, KS). […] RCT-1 and RCT-3 are clonal cell lines immortalized by SV40 large T antigen from cells released from fetal rat calvair by a cmbination collagenase/hyaluronidase digestion. RCT-1 cells, derived from cells released during the first 10 minutes of digestion (fraction I), are cultured in RPMI 1640 medium (BRL) with 10% fetal bovine serum and 0.4 mg/ml G418 (BRL). These cells differentiate and express osteoblastic features upon retinoic acid treatment. RCT-3 cells, immortalized from osteoblast-enriched fraction m cells, are cultured in F-12 medium (BRL) with 5% Fetal bovine serum and 0.4 mg/ml G418. TRAB-11 cells are also immortalized by SV40 large T antigen from adult rat tibia and are cultured in RPMI 1640 medium with 10% FBS and 0.4 mg/ml G418. ROS 17/12.8 rat osteosarcoma cells are cultured in F-12 containing 5% PBS. Osteoblast-enriched (fraction III) primary fetal rat calvaria cells are obtained by collagenase/hyaluronidase digestion of calvariae of 19 day-old rat fetuses. […]

intracellular cAMP = test: Intracellular cAMP in osteoblastic cell lines; assay type: cell-based, rat
Description: as §1, with “fetuses. See Rodan et al., Growth stimulation of rat calvaria osteoblastic cells by acidic FGF, Endocrinology, 121, 1919-1923 (1987), which is incorporated by reference herein in its entirety. Cells are released during 30-50 minutes digestion (fraction III) and are cultured in F-12 medium containing 5% FBS. P815 (mouse mastocytoma) cells, cultured in Eagles MEM with 10% FBS, and NRK (normal rat kidney fibroblasts) cells, cultured in DMEM with 10% […], are used as positive and negative controls for the expression of EP4, respectively. See Abramovitz et al., Human prostanoid receptors: cloning and characterization. In: Samulesson B. et al. ed) Advances in prostaglandin, Thrombosznes and leukotriene research, vol.” for “fetuses.”

EP2 mRNA [2] = test: EP2 mRNA in vivo in bone tissue (Northern blot); design: species or system rat
EP4 mRNA [3] = test: Localization of EP4 mRNA expression in bone tissue (in situ hybridization); assay type: in vivo, rat; settings: single anabolic dose, rats
Description: Animal Procedures—For mRNA localization experiments, 5-week old Sprague-Dawley rats (Charles River) are euthanized by CO2, their tibiae and calvariae are excised, cleaned of soft tissues and frozen immediately in liquid nitrogen. For EP4 regulation experiments, 6-week old rats are given a single injection of either vehicle (7% ethanol in sterile water) or an anabolic dose of PGE2 (Cayman Chemical, Ann Arbor, Mich.), 3-6 mg/kg in the same vehicle) intraperitoneally. Animals are euthanized at several time points post-injection and their tibiae and calvariae, as well as samples from lung and kidney tissues are frozen in liquid nitrogen.
In-Situ Hybridization—Frozen tibiae are sectioned coronally at […] thickness and sections are mounted on charged slides (Probe On Plus, Fisher Scientific, Springfield, N.J.) and are kept at −70° C. until hybridization. cRNA probes are labeled with ^35S-UTPgS ([CN, Costa Mesa, CA) using a Riboprobe II kit (Promega Madison, Wis.). Hybridization is performed overnight at 50° C. […]
Localization of EP4 mRNA expression in bone tissue—In situ hybridization is used in order to localize cells expressing EP4 in bone. In control experiment (vehicle-injected) rats, low expression of EP4 is detected in bone marrow cells. […]

EP4 mRNA [4] = test: EP4 mRNA levels in vivo in bone tissue (Northern blot); design: species or system rat; settings: tibial diaphysis, five-week-old male rats, 3-6 mg/Kg
Source text: Animal Procedures—For mRNA localization experiments, 5-week old Sprague-Dawley rats (Charles River) are euthanized by CO2, their tibiae and calvariae are excised, cleaned of soft tissues and frozen immediately in liquid nitrogen. […] Animals are euthanized at several time points post-injection and their tibiae and calvariae, as well as samples from lung and kidney tissues are frozen in liquid nitrogen.
Northern Blot Analysis—Total RNA is extracted from the tibial metaphysis or diaphysis and calvaria using a guanidinium isothiocyanate-phenol-chloroform method after pulverizing frozen bone samples by a tissue homogenizer. See P. Chomczynski et al., Single-step method of RNA isolation by acid guanidium thiocyanate-phenol-chloroform extraction., Analyt Biochem, 162, 156-159 (1987), which is incorporated by reference herein in its entirety. RNA samples ([…]) are separated on 0.9% agarose/formaldehyde gels and transferred onto nylon membranes (Boehringer Mannheim, Germany). Membranes are prehybridized in Hybrisol I (Oncor, Gaithersburg, Md.) and 0.5 mg/ml sonicated salmon sperm DNA (Boehringer) at 42° C. for 3 hours and are hybridized at 420C with rat EP2 and mouse EP4 cDNA probes labeled with [^32P]-dCTP (Amersham, Buckinghamshire, UK) by random priming using the rediprime kit (Amersham). […]

EP4 mRNA [5] = test: EP4 mRNA levels in bone derived cell lines (Northern blot); assay type: cell-based, rat
Description: as §1, with “fetuses. See Rodan et al., Growth stimulation of rat calvaria osteoblastic cells by acidic FGF, Endocrinology, 121, 1919-1923 (1987), which is incorporated by reference herein in its entirety. Cells are released during 30-50 minutes digestion (fraction III) and are cultured in F-12 medium containing 5% FBS. P815 (mouse mastocytoma) cells, cultured in Eagles MEM with 10% FBS, and NRK (normal rat kidney fibroblasts) cells, cultured in DMEM with 10% […], are used as positive and negative controls for the expression of EP4, respectively. See Abramovitz et al., Human prostanoid receptors: cloning and characterization. In: Samulesson B. et al. ed) Advances in prostaglandin, Thrombosznes and leukotriene research, vol.” for “fetuses.”

`CCCCC[C@H](O)/C=C/[C@H]1[C@H](O)CC(=O)[C@@H]1C/C=C\CCCC(=O)O` [PGE2] was tested, and the “induction of EP2 mRNA” value (EP2 mRNA [1]) was “does not induce”, the “effect on intracellular cAMP” value (intracellular cAMP; RCT-3 cells) was “markedly induced” and the “effect on intracellular cAMP” value (intracellular cAMP; ROS 17/2.8 cells) was “no effect”. For the same compound, the “effect on intracellular cAMP” value (intracellular cAMP; TRAB-11 cells) was “markedly induced”, the “induction of EP2 mRNA” value (EP2 mRNA [2]) was “does not induce” and the “expression of EP4 in bone marrow cells” value (EP4 mRNA [3]) was “increased”. For the same compound, the “time of peak of EP4 mRNA levels after injection” value (EP4 mRNA [4]) was 2 h, the “EP4 mRNA levels” value (EP4 mRNA [4]; systemic) was “rapidly increased” and the “EP4 mRNA levels” value (EP4 mRNA [5]; RCT-3 cells) was “no effect”. For the same compound, the “EP4 mRNA levels” value (EP4 mRNA [5]; RP-1 periosteal cells, 10^-6 M) was “rapidly increases” and the “time of peak of EP4 mRNA levels after treatment” value (EP4 mRNA [5]; RP-1 periosteal cells, 10^-6 M) was 2 h.
